Data from patent publication EP0186440A2, “Method for producing benzoic acid derivatives” (Takeda Chemical Industries, Ltd., priority 1984, dated 1986).
Read-outs that look alike come from different tables or passages of the source.

What was measured:
[1] = parameters: species or system male mice of Jcl:ICR strain; conditions: mouse, in vivo, po
Experimental: Five 5-week-old male mice of Jcl:ICR strain, weighing about 30 g each, were used. Compound A, C or E was suspended in a 5% solution of gum arabic and administered orally at the level of 0.2 ml per 10 grams body weight.

[2] = test system: synthetic leukotriene D4 (LTD4); experiment: Bronchoconstriction in guinea pigs due to intravenous LTD4 (Konzett-Rössler method), compound given orally one hour before; assay type: in vivo, Guinea pigs of the Hartley strain; conditions: Cavia porcellus, 1 h; 50% inhibitory dose; oral, one hour before LTD4 (10 µg/kg i.v.); inhibition of overflowing volume at maximal response, 30 seconds after LTD4; read-out: ID50(p.o.)
Experimental: Guinea pigs of the Hartley strain, both male and female, with body weights of about 400 g were assigned to groups of 6-10 individuals, and the bronchoconstriction due to LTD4 was measured according to the method of Konzett-Rossler, [Konzett, H. and Rössler, R.: Naunyn-Schmidebergs Archiv für Experimentelle Pathologie und Pharmakologie, 195, 71-74 (1940).] Each guinea pig was fixed in a supine position under urethane anesthesis (1.5 g/kg, intraperitoneal) and the trachea was incised and connected to an artificial respiration apparatus, Rodent Respirator Model 680 [Harvard Apparatus Company, U.S.A.] via a cannula. The branch tube of this tracheal cannula was connected to a Bronchospasm Transducer Model 7020 [Ugobasil Biological Research Apparatus, Italy]. Under the conditions of 4 to 7 ml of air per stroke, 70 strokes per minute and a lung loading pressure of 10 cmH20, the volume of overflowing air was recorded on Rectigraph-8S (San-eiSokki Ltd., Japan) via a transducer. After administration of gallamine triethiodide (1'mg/kg, i.v.), a solution of LTD4 in physiological saline (10 µg/kg) was intravenously administered and the bronchoconstriction elicited thereby was recorded for 15 minutes. The compound was used as suspended in a 5% solution of gum arabic or dissolved in water, and administered orally in a volume of 0.2 ml per 100 c body weight one hour before LTD4 loading. […]

SMILES | Autopsy after 7 days ([1]; 2000 mg/kg) | symptoms attributable to the compound (acute toxicity) ([1]; 2000 mg/kg) | ED50 [2] | Autopsy after 7 days ([1]; 500 mg/kg) | symptoms attributable to the compound (acute toxicity) ([1]; 500 mg/kg)
CCCc1c(OCCCOc2ccc(C(=O)OCCCN(C)C)cc2Br)ccc(C(C)=O)c1O [E, 3-dimethylaminopropyl 4-[3-(4-acetyl-3-hydroxy-2-propylphenoxy)propoxy]-3-bromobenzoate] | did not reveal any abnormalities | no symptoms | – | – | –
CCCc1c(OCCCOc2ccc(C(=O)O)cc2Br)ccc(C(C)=O)c1OC(C)=O [Compound A, 4-[3-(3-acetoxy-4-acetyl-2-propylphenoxy)propoxy]-3-bromobenzoic acid] | – | – | 47 µmol/kg | did not reveal any abnormalities | no symptoms
CCCc1c(OCCCOc2ccc(C(=O)OCCN3CCOCC3)cc2Br)ccc(C(C)=O)c1O [C, 2-morpholinoethyl 4-[3-(4-acetyl-3-hydroxy-2-propylphenoxy)propoxy]-3-bromobenzoate] | did not reveal any abnormalities | no symptoms | – | – | –
